Data taken from ChEMBL document CHEMBL3244332, “Studies on quinoline derivatives and related compounds. 5. Synthesis and antimicrobial activity of novel 1-alkoxy-1,4-dihydro-4-oxo-3-quinolinecarboxylic acids” (J Med Chem, 1977).
Values after ≈ are worked out from the molar mass of the structure shown.

Key:
[1] = tested on: Staphylococcus aureus; assay: microbe, parasite or virus in culture; format: functional; conditions: 209P, 24 h
Description: Antibacterial activity against Staphylococcus aureus 209P after 24 hrs by twofold dilution assay

[2] = tested on: Escherichia coli; assay: Antibacterial activity against Escherichia coli NIHJ after 24 hrs by twofold dilution assay; format: functional
[3] = tested on: Proteus mirabilis; assay: microbe, parasite or virus in culture; format: functional; conditions: GN 2425, 24 h
Description: Antibacterial activity against Proteus mirabilis GN 2425 after 24 hrs by twofold dilution assay

[4] = tested on: Pseudomonas aeruginosa; assay: microbe, parasite or virus in culture; format: functional; conditions: Pseudomonas aeruginosa, 104, 24 h
Description: Antibacterial activity against Pseudomonas aeruginosa 104 after 24 hrs by twofold dilution assay

[5] = tested on: Klebsiella pneumoniae; assay: microbe, parasite or virus in culture; format: functional; conditions: PCI-602, 24 h
Description: Antibacterial activity against Klebsiella pneumoniae PCI-602 after 24 hrs by twofold dilution assay

[6] = Drug recovery in Wistar rat urine at 50 mg/kg, po measured over 24 hrs
[7] = Drug level in Wistar rat serum at 50 mg/kg, po measured at 0.5 hr
[8] = Drug level in Wistar rat serum at 50 mg/kg, po measured at 1 hr
[9] = Drug level in Wistar rat serum at 50 mg/kg, po measured at 2 hrs
[10] = Drug level in Wistar rat serum at 50 mg/kg, po measured at 4 hrs
[11] = Drug level in Wistar rat serum at 50 mg/kg, po measured at 6 hrs; format: ADME, organism-based; parameters: dose 50 mg/kg, route oral; conditions: read-out: Drug uptake
[12] = tested on: Escherichia coli; assay: Antibacterial activity against Escherichia coli 0111 infected in ICR mouse administered orally 0.5 hr and 6 hrs post infection measured 1 week post challenge; format: functional; conditions: Escherichia coli, 0111, po
[13] = tested on: Proteus mirabilis; assay: Antibacterial activity against Proteus mirabilis GN2425 infected in ICR mouse administered orally 0.5 hr and 6 hrs post infection measured 1 week post challenge; format: functional; conditions: GN2425, po

Row | SMILES | MIC [1] | MIC [2] | MIC [3] | MIC [4] | MIC [5] | dose excreted at 24 h [6] | concentration at 0.5 h [7] | concentration at 1 h [8] | concentration at 2 h [9] | concentration at 4 h [10] | concentration at 6 h [11] | ED50 [12] | ED50 [13]
1 | O=C(O)c1cn(OCCO)c2cc3c(cc2c1=O)OCO3 | 100 µg/mL (≈ 341 µM) | 100 µg/mL (≈ 341 µM) | 100 µg/mL (≈ 341 µM) | 100 µg/mL (≈ 341 µM) | > 200 µg/mL | – | – | – | – | – | – | – | –
2 | C=CCOn1cc(C(=O)O)c(=O)c2c3sc(=O)n(CC=C)c3ccc21 | 50 µg/mL (≈ 140 µM) | 100 µg/mL (≈ 279 µM) | > 200 µg/mL | > 200 µg/mL | 200 µg/mL (≈ 558 µM) | – | – | – | – | – | – | – | –
3 | O=C(O)c1cn(OCc2ccccc2)c2ccc3c(sc(=O)n3Cc3ccccc3)c2c1=O | > 1.56 µg/mL | > 200 µg/mL | > 200 µg/mL | > 200 µg/mL | > 200 µg/mL | – | – | – | – | – | – | – | –
4 | CC(C)On1cc(C(=O)O)c(=O)c2cc3c(cc21)OCO3 | 25 µg/mL (≈ 85.8 µM) | 6.25 µg/mL (≈ 21.5 µM) | 50 µg/mL (≈ 172 µM) | 200 µg/mL (≈ 687 µM) | 3.13 µg/mL (≈ 10.7 µM) | – | – | – | – | – | – | – | –
5 | O=C(O)c1cn(OCC2CC2)c2cc3c(cc2c1=O)OCO3 | 50 µg/mL (≈ 165 µM) | 50 µg/mL (≈ 165 µM) | 100 µg/mL (≈ 330 µM) | > 200 µg/mL | > 200 µg/mL | – | – | – | – | – | – | – | –
6 | CCn1cc(C(=O)O)c(=O)c2cc3c(cc21)OCO3 [OXOLINIC ACID] | 3.13 µg/mL (≈ 12 µM) | 0.39 µg/mL (≈ 1.49 µM) | 0.39 µg/mL (≈ 1.49 µM) | 6.25 µg/mL (≈ 23.9 µM) | 0.78 µg/mL (≈ 2.99 µM) | 2.4% | 700 ng/mL | 1500 ng/mL | 4700 ng/mL | 4800 ng/mL | 2700 ng/mL | 20 mg/kg | 48 mg/kg
7 | CCCOn1cc(C(=O)O)c(=O)c2cc3c(cc21)OCO3 | 50 µg/mL (≈ 172 µM) | 100 µg/mL (≈ 343 µM) | 200 µg/mL (≈ 687 µM) | 100 µg/mL (≈ 343 µM) | > 200 µg/mL | – | – | – | – | – | – | – | –
8 | C=CCOn1cc(C(=O)O)c(=O)c2c3c(ccc21)OCOC3 | > 50 µg/mL | > 200 µg/mL | > 200 µg/mL | > 200 µg/mL | > 200 µg/mL | – | – | – | – | – | – | – | –
9 | CCOn1cc(C(=O)O)c(=O)c2cc3c(cc21)OCO3 | 25 µg/mL (≈ 90.2 µM) | 3.13 µg/mL (≈ 11.3 µM) | 50 µg/mL (≈ 180 µM) | 100 µg/mL (≈ 361 µM) | 1.56 µg/mL (≈ 5.63 µM) | – | – | – | – | – | – | – | –
10 | COn1cc(C(=O)O)c(=O)c2c3c(ccc21)OCC3 | 50 µg/mL (≈ 191 µM) | 100 µg/mL (≈ 383 µM) | > 200 µg/mL | > 200 µg/mL | 50 µg/mL (≈ 191 µM) | – | – | – | – | – | – | – | –
11 | COn1cc(C(=O)O)c(=O)c2c3c(ccc21)OCOC3 | 25 µg/mL (≈ 90.2 µM) | 12.5 µg/mL (≈ 45.1 µM) | 200 µg/mL (≈ 721 µM) | > 200 µg/mL | 12.5 µg/mL (≈ 45.1 µM) | – | – | – | – | – | – | – | –
12 | COn1cc(C(=O)O)c(=O)c2ccc3c(c21)CCC3 | 25 µg/mL (≈ 96.4 µM) | 12.5 µg/mL (≈ 48.2 µM) | 50 µg/mL (≈ 193 µM) | > 200 µg/mL | 3.13 µg/mL (≈ 12.1 µM) | – | – | – | – | – | – | – | –

Continued, in another order:

Row | MIC [1] | MIC [2] | MIC [3] | MIC [4] | MIC [5] | dose excreted at 24 h [6] | concentration at 0.5 h [7] | concentration at 1 h [8] | concentration at 2 h [9] | concentration at 4 h [10] | concentration at 6 h [11] | SMILES | ED50 [12] | ED50 [13]
13 | 3.13 µg/mL (≈ 11.4 µM) | 6.25 µg/mL (≈ 22.7 µM) | 12.5 µg/mL (≈ 45.4 µM) | > 200 µg/mL | – | – | – | – | – | – | – | CCn1cc(C(=O)O)c(=O)c2c3c(ccc21)OCOC3 | – | –
14 | 6.25 µg/mL (≈ 23.9 µM) | 0.78 µg/mL (≈ 2.99 µM) | 0.39 µg/mL (≈ 1.49 µM) | 12.5 µg/mL (≈ 47.9 µM) | 0.2 µg/mL (≈ 0.766 µM) | 11% | 6200 ng/mL | 4700 ng/mL | 4000 ng/mL | 1700 ng/mL | – | COn1cc(C(=O)O)c(=O)c2cc3c(cc21)CCO3 | – | –
15 | 12.5 µg/mL (≈ 43.2 µM) | 6.25 µg/mL (≈ 21.6 µM) | 50 µg/mL (≈ 173 µM) | 200 µg/mL (≈ 691 µM) | 3.13 µg/mL (≈ 10.8 µM) | – | – | – | – | – | – | C=CCOn1cc(C(=O)O)c(=O)c2cc3c(cc21)OCO3 | – | –
16 | 3.13 µg/mL (≈ 10.3 µM) | 0.1 µg/mL (≈ 0.329 µM) | 0.39 µg/mL (≈ 1.28 µM) | > 200 µg/mL | 0.2 µg/mL (≈ 0.657 µM) | 0.3% | 300 ng/mL | 360 ng/mL | 320 ng/mL | 450 ng/mL | 360 ng/mL | CCn1cc(C(=O)O)c(=O)c2c3sc(=O)n(C)c3ccc21 [TIOXACIN] | – | –
17 | 3.13 µg/mL (≈ 12.2 µM) | 1.56 µg/mL (≈ 6.06 µM) | 6.25 µg/mL (≈ 24.3 µM) | 50 µg/mL (≈ 194 µM) | 0.39 µg/mL (≈ 1.52 µM) | – | – | – | – | – | – | CCn1cc(C(=O)O)c(=O)c2ccc3c(c21)CCC3 | – | –
18 | 6.25 µg/mL (≈ 20.4 µM) | 0.2 µg/mL (≈ 0.653 µM) | 0.39 µg/mL (≈ 1.27 µM) | 12.5 µg/mL (≈ 40.8 µM) | 0.2 µg/mL (≈ 0.653 µM) | 1.8% | 2900 ng/mL | 4500 ng/mL | 3700 ng/mL | 1900 ng/mL | – | COn1cc(C(=O)O)c(=O)c2c3sc(=O)n(C)c3ccc21 | – | –
19 | 6.25 µg/mL (≈ 23.7 µM) | 0.39 µg/mL (≈ 1.48 µM) | 0.39 µg/mL (≈ 1.48 µM) | 12.5 µg/mL (≈ 47.5 µM) | 0.39 µg/mL (≈ 1.48 µM) | 7.5% | 11600 ng/mL | 27800 ng/mL | 22300 ng/mL | 19500 ng/mL | 1500 ng/mL | COn1cc(C(=O)O)c(=O)c2cc3c(cc21)OCO3 [MILOXACIN] | 7.2 mg/kg | 30 mg/kg
